{
  "source": "patent US11707472B2",
  "about": "“Compositions for the treatment of fibrosis” (Viking Therapeutics, Inc., priority 2017, dated 2023)",
  "type_in_all_cases": "in vivo",
  "key": {"[1]": {"system": "DIO-NASH mice", "test": "DIO-NASH mice, 8 weeks oral treatment, liver fibrosis readouts (Example 1)", "conditions": "oral once per day; for liver Picro-Sirius Red (PSR) staining (total liver collagen 1 and 3 by morphometry): Compound 1 10 mg/kg; for proportion of animals with a reduction in fibrosis score post-treatment: vs mock treated animals", "method": "DIO-NASH mice were acclimatized for 3 weeks, with pre-treatment liver biopsy samples collected prior to acclimatization. Mice were randomly assigned to one of five dosing groups, with 12 mice per group. Assigned dosages were: Compound 2 (low): 3 mg/kg; Compound 2 (high): 10 mg/kg; Compound 1: 10 mg/kg; and Elafibranor (30 mg·kg). One group was mock treated with vehicle only as a control. Dosage forms were administered orally once per day. After 8 weeks, animals were sacrificed and liver samples were taken. Liver samples were assayed for total liver hydroxyproline, and subjected to immunohistochemical observation for fibrosis stage as well as the extent of Cola1 (Collagen Type Ia) staining. […] Since hydroxyproline is a significant component of collagen, and collagen is the most significant source of hydroxyproline in animal tissues, levels of hydroxyproline provide a reliable proxy for the presence of collagen in a sample.\nTerminal liver biopsy samples were also subjected to histochemical staining and immunohistochemical staining. Representative images of liver stained with Picro-Sirius Red (to visualize collagen I and III deposition, red stain) at the end of the treatment period following 8 weeks of treatment with vehicle, low dose Compound 2, high dose Compound 2, Compound 1, or elafibranor are shown in FIG. 2. […] Representative images of liver stained with anti-type I collagen (col1a1) (Southern Biotech, Cat. 131001) at the end of the treatment period following 8 weeks of treatment with vehicle, low dose Compound 2, high dose Compound 2, Compound 1, or elafibranor are shown in FIG. 3. The extent of ColA1 content was calculated as the total liver ColA1 staining in terminal liver biopsy samples.\nFibrosis scores were also calculated based on observation of terminal liver biopsy samples."}, "[2]": {"system": "male Dunkin-Hartley guinea pigs", "test": "bleomycin-induced pulmonary fibrosis (Example 2)", "conditions": "guinea pig lung biopsies, 6-10 weeks treatment; relative to levels prior to administration", "method": "Pulmonary fibrosis is induced in healthy male Dunkin-Hartley guinea pigs by administering bleomycin intratracheally. Control subjects are developed by intratracheal administration of saline solution. After the establishment of pulmonary fibrosis in the bleomycin treated animals, test articles comprising any one of Compounds 1-4, or any other compound disclosed herein, are administered to each subject as appropriate for its formulation, daily or as appropriate, for 6-10 weeks. Unilateral lung biopsies are taken prior to the first administration of the test articles and again after sacrifice following the last administration of the test articles. Biopsy samples are analyzed as described in Example I, with the addition of immunohistochemical staining for type III collagen. […] Mock treated animals show little or no reduction in fibrosis, hydroxyproline content, or Collagen III content."}, "[3]": {"system": "diet-induced NASH mouse model", "test": "diet-induced NASH mouse model, 8-week dosing (Example 6)", "set-up": "reduction in fibrosis (fibrosis score) / reduction in type 1 collagen deposition / reduction in hydroxyproline / reduction of expression of pro-fibrotic gene Colla1 / reduction of expression of pro-fibrotic gene Col3a1 / reduction of expression of pro-fibrotic gene αSMA / reduction of expression of pro-fibrotic gene Galectin 1: concentration or dose not given beside the values", "conditions": "diet-induced NASH mice, oral dosing 8 weeks", "method": "Compound 2 was evaluated in a diet-induced NASH mouse model (See, e.g., Hansen, H. et al., Drug Discovery Today 22(17):1701-1718 (2017) which is hereby incorporated by reference with respect to its disclosure of diet-induced, genetic, chemical, and other NASH mouse models). […] Animals were biopsied pre-study, and only animals with NASH and fibrosis were selected for study. Selected animals were acclimatized and randomized, with experimental groups of 11-12 animals per cohort receiving oral dosing of compound 2 according to the following schedules: Daily dosing for 8 weeks; or daily dosing for week 0-1 followed by weekly dosing for weeks 2-8. At week 8, animals were sacrificed and tissues analyzed. Plasma enzymes (P-ALT (alanine aminotransferase) and P-AST (aspartate aminotransferase)), total plasma triglycerides, and total plasma cholesterol were measured, and terminal necropsy of each liver was carried out, assaying total liver biochemistry including total liver triglycerides, and total liver cholesterol, as well as histological evaluation of NAFLD activity score (done pre- and post-treatment), fibrosis stage (also done pre- and post-treatment), steatosis, Colla1 level, and galactin-3 level. Tissue samples were preserved for characterization using RNAseq; RNAseq was used to determine expression levels for genes showing differential expression in compound 2-treated vs. vehicle treated animals and/or genes known to be implicated in fibrosis."}, "[4]": {"system": "Sprague-Dawley Rats or C57BL mice", "test": "hypertrophic skin lesions induced by capsaicin, CCl4 and/or bleomycin (Example 3)", "conditions": "rat or mouse skin biopsies, 6-10 weeks treatment; relative to levels prior to administration", "description": "Hypertrophic skin lesions are induced in Sprague-Dawley Rats by subcutaneous injection of capsaicin as described in Wallengren, J. et al., Skin Pharm. Appl. Skin Physiol. 15(3):154-165 (2002), which is hereby incorporated by reference with respect to its description of the induction of hypertrophic skin lesions in rats; or in C57BL or other appropriate strain mice by subcutaneous administration of CCl4 and/or bleomycin, as described in Alonso-Merino et al., Proc. Nat. Acad. Sci. 113(24):E3451-60 (2016), which is incorporated herein for its disclosure of the induction of fibrotic skin lesions in mice. After the establishment of hypertrophic skin lesions in the capsaicin, CCl4 and/or bleomycin treated animals, test articles comprising any one of Compounds 1-4, or any other compound disclosed herein, are administered to each subject animal as appropriate for its formulation, daily or as appropriate, for 6-10 weeks. Skin biopsies from the injection site are taken prior to the first administration of the test articles and again after sacrifice following the last administration of the test articles. Biopsy samples are analyzed as described in Example I, with the addition of immunohistochemical staining for type III collagen. […] Mock treated animals show little or no reduction in fibrosis, hydroxyproline content, or Collagen III content."}, "[5]": {"system": "Glucose-6-phosphatase-α deficient mice (Agl−/−)", "test": "GSD-3-like hepatic symptoms in Agl-/- mice (Example 4)", "conditions": "Agl−/− mice liver biopsies, 6-10 weeks treatment; relative to levels prior to administration", "method": "(§1) Glucose-6-phosphatase-α deficient mice that manifest GSD-3-like hepatic symptoms, including hypercholesterolemia and hyperlipidemia (Agl−/−, see e.g. Liu, K. M. et al., Mol. Genet. Metabol. 111(4):467-76 (2014)) are treated with test articles comprising any one of Compounds 1-4, or any other compound disclosed herein, administered to each subject as appropriate for its formulation, daily or as appropriate, for 6-10 weeks. Liver biopsies are taken prior to the first administration of the test articles and again after sacrifice following the last administration of the test articles. […] Mock treated animals show little or no reduction in fibrosis, hydroxyproline content, or Collagen I content."}, "[6]": {"system": "Phosphorylase kinase deficient mice (PhKc−/−)", "test": "GSD-8/9-like hepatic symptoms in PhKc-/- mice (Example 5)", "conditions": "PhKc−/− mice liver biopsies, 6-10 weeks treatment; relative to levels prior to administration", "method": "as §1, with “Phosphorylase kinase” for “Glucose-6-phosphatase-α”, “GSD-8/9-like” for “GSD-3-like”, “(PhKc−/−, see, e.g., Varsanyi,” for “(Agl−/−, see e.g. Liu, K.”, “Biochem.” for “Mol.”, “18(3-4):247-61 (1980)),” for “Metabol. 111(4):467-76 (2014))”"}, "[7]": {"system": "nude mice", "test": "palmar fascia fibrosis induced by Dupuytren's disease fibroblasts (second Example 2)", "conditions": "nude mice forepaw biopsies, 6-10 weeks treatment; relative to levels prior to administration", "description": "Palmar fascia fibrosis is induced in nude mice by introducing fibroblasts from fibrotic cords of Dupuytren's disease patients as described in Stish, L. et al., BMC Musculoskelet. Disord. 16: 138-148 (2015) which is hereby incorporated by reference with respect to its description of the establishment of an animal model system for the study of palmar fascia fibrosis. After the establishment of palmar fascia fibrosis in the fibroblast treated animals, test articles comprising any one of Compounds 1-4, or any other compound disclosed herein, are administered to each subject as appropriate for its formulation, daily or as appropriate, for 6-10 weeks. Unilateral forepaw biopsies are taken prior to the first administration of the test articles and again after sacrifice following the last administration of the test articles. Biopsy samples are analyzed as described in Example 1, with the addition of immunohistochemical staining for type I collagen. […] Mock treated animals show little or no reduction in fibrosis, hydroxyproline content, or Collagen III content."}, "[8]": {"conditions": "Compound 2 3 and 10 mg/kg, vs elafibranor (control) and vehicle (mock)"}, "[9]": {"conditions": "liver RNAseq, FIG. 8, vs vehicle-treated controls"}, "[10]": {"conditions": "liver, FIG. 7, relative to pre-treatment samples"}},
  "data": [
    {"compound": "Cc1cc(OCP(=O)(OCOC(=O)C(C)(C)C)OCOC(=O)C(C)(C)C)cc(C)c1Cc1ccc(O)c(Cc2ccccc2)c1", "note": "[Compound 1]", "values": [
      {"measurement": "liver Picro-Sirius Red (PSR) staining (total liver collagen 1 and 3 by morphometry)", "setting": "[1]; [8]", "result": "lower PSR staining than those from mock-treated animals"},
      {"measurement": "proportion of animals with a reduction in fibrosis score post-treatment", "setting": "[1]", "result": "higher proportion"}
    ]},
    {"compound": "Cc1cc(OCP2(=O)OCC[C@@H](c3cccc(Cl)c3)O2)cc(C)c1Cc1ccc(O)c(C(C)C)c1", "note": "(stereo partly shown) [Compound 2]", "values": [
      {"measurement": "animals with increases in fibrosis score post-treatment", "setting": "[1]", "result": "No Compound 2-treated animals showed increases"},
      {"measurement": "liver Picro-Sirius Red (PSR) staining (total liver collagen 1 and 3 by morphometry)", "setting": "[1]; [8]", "result": "lower PSR staining than control-treated or mock-treated animals"},
      {"measurement": "total liver hydroxyproline", "setting": "[1]; Compound 2 3 mg/kg (low) and 10 mg/kg (high), vs elafibranor 30 mg/kg (control) and vehicle (mock)", "result": "lower total liver hydroxyproline levels than control-treated or mock-treated animals"},
      {"measurement": "total liver ColA1 content (anti-type I collagen staining)", "setting": "[1]; Compound 2 3 and 10 mg/kg, terminal liver biopsy, vs elafibranor (control) and vehicle (mock)", "result": "lower total liver ColA1 content than control-treated or mock-treated animals"},
      {"measurement": "proportion of animals with a reduction in fibrosis score post-treatment", "setting": "[1]", "result": "higher proportion"},
      {"measurement": "lung Collagen III staining", "setting": "[2]", "result": "decreased"},
      {"measurement": "lung fibrosis score", "setting": "[2]", "result": "decreased"},
      {"measurement": "lung hydroxyproline levels", "setting": "[2]", "result": "reduced levels"},
      {"measurement": "NAS scores (NAFLD activity score)", "setting": "[3]", "result": "significant improvements"},
      {"measurement": "toxicity", "setting": "[3]", "result": "No significant toxicity"},
      {"measurement": "reduction of total lipid content in the liver", "setting": "[3]; FIG. 6, vs vehicle-treated controls", "result": "approximately 80%"},
      {"measurement": "reduction of expression of pro-fibrotic gene Col3a1", "setting": "[3]; [9]", "result": 27.1, "unit": "%"},
      {"measurement": "reduction of expression of pro-fibrotic gene Colla1", "setting": "[3]; [9]", "result": 36.3, "unit": "%"},
      {"measurement": "reduction of expression of pro-fibrotic gene Galectin 1", "setting": "[3]; [9]", "result": 64.7, "unit": "%"},
      {"measurement": "reduction of expression of pro-fibrotic gene αSMA", "setting": "[3]; [9]", "result": 37, "unit": "%"},
      {"measurement": "reduction in fibrosis (fibrosis score)", "setting": "[3]; [10]", "result": 50.2, "unit": "%"},
      {"measurement": "reduction in hydroxyproline", "setting": "[3]; [10]", "result": 46.3, "unit": "%"},
      {"measurement": "reduction in type 1 collagen deposition", "setting": "[3]; [10]", "result": 60.2, "unit": "%"},
      {"measurement": "liver cholesterol", "setting": "[3]; relative to untreated controls", "result": "Significant reductions"},
      {"measurement": "liver triglycerides", "setting": "[3]; relative to untreated controls", "result": "Significant reductions"},
      {"measurement": "injection site skin Collagen III staining", "setting": "[4]", "result": "decreased"},
      {"measurement": "injection site skin fibrosis score", "setting": "[4]", "result": "decreased"},
      {"measurement": "injection site skin hydroxyproline levels", "setting": "[4]", "result": "reduced levels"},
      {"measurement": "liver Collagen I staining", "setting": "[5]", "result": "decreased"},
      {"measurement": "liver fibrosis score", "setting": "[5]", "result": "decreased"},
      {"measurement": "liver hydroxyproline levels", "setting": "[5]", "result": "reduced levels"},
      {"measurement": "liver Collagen I staining", "setting": "[6]", "result": "decreased"},
      {"measurement": "liver fibrosis score", "setting": "[6]", "result": "decreased"},
      {"measurement": "liver hydroxyproline levels", "setting": "[6]", "result": "reduced levels"},
      {"measurement": "palmar fascia Collagen III staining", "setting": "[7]", "result": "decreased"},
      {"measurement": "palmar fascia fibrosis score", "setting": "[7]", "result": "decreased"},
      {"measurement": "palmar fascia hydroxyproline levels", "setting": "[7]", "result": "reduced levels"}
    ]}
  ]
}
